Measured values taken from ChEMBL document CHEMBL1136580, “Enterolosaponins A and B, novel triterpene bisdesmosides from Enterolobium contortisiliquum, and evaluation for their macrophage-oriented cytotoxic activity” (Bioorg Med Chem Lett, 2003).

Experiment: Compound was tested for its cytotoxic activity against BACI.2F5 mouse macrophages
Settings: read-out: LD50 (the source's name)

SMILES: CC(=O)N[C@@H]1[C@H](O[C@H]2CC[C@]3(C)[C@H]4CC=C5[C@@H]6CC(C)(C)[C@@H](OC(=O)/C=C/c7ccccc7)C[C@]6(C(=O)O[C@@H]6O[C@@H](CO)[C@@H](O)[C@H](O)[C@@H]6O[C@@H]6O[C@@H](C)[C@H](O[C@@H]7O[C@@H](CO)[C@H](O)[C@H]7O)[C@H](O[C@@H]7O[C@@H](CO)[C@@H](O)[C@H](O)[C@@H]7O)[C@H]6O)CC[C@@]5(C)[C@]4(C)CC[C@H]3C2(C)C)O[C@@H](CO[C@@H]2OC[C@H](O)[C@@H](O)[C@@H]2O[C@@H]2OC[C@@H](O)[C@H](O)[C@@H]2O)[C@@H](O)[C@@H]1O
- CC50: ≤ 3 µM
